Laboratory results: publication PMC5842406, “Antidyslipidemic potential of a novel farnesoid X receptor antagonist in a hamster model of dyslipidemia: Comparative studies of other nonstatin agents” (Pharmacology Research & Perspectives, 2018)

Assays:
FXR [1] = target: T1, FXR (Homo sapiens, UniProt Q96RI1); experiment: luciferase reporter gene assay, agonist mode; format: cell-based; conditions: read-out: ED50 values
T1 construct: gene NR1H4
T1 sequence (Q96RI1 1-486): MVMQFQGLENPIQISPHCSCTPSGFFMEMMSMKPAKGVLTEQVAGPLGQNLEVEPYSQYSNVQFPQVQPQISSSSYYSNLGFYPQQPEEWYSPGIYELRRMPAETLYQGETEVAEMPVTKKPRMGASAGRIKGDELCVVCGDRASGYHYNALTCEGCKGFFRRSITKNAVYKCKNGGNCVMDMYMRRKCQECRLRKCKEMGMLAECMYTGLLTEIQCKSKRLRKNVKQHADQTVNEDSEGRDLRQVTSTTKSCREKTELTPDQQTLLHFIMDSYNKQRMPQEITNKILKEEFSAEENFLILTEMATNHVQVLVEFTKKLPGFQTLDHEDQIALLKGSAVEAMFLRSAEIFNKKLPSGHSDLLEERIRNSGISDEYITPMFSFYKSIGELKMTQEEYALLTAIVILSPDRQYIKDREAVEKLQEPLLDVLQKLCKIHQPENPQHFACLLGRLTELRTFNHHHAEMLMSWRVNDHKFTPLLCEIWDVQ
Source text: luciferase reporter gene assay, agonist mode on FXR

RXRβ = system: T2, RXRβ; experiment: nuclear receptor panel reporter assay, antagonist mode; format: cell-based, Homo sapiens; conditions: control ligand not told for RXRβ
T2 construct: gene RXRB; not described
Source text: nuclear receptor panel reporter assay, antagonist mode on RXRβ

PPARγ = target: T3, PPARγ (Homo sapiens, UniProt P37231); experiment: nuclear receptor panel assay, agonist mode; format: cell-based; conditions: read-out: ED50 values
T3 construct: gene PPARG
T3 sequence (P37231 1-505): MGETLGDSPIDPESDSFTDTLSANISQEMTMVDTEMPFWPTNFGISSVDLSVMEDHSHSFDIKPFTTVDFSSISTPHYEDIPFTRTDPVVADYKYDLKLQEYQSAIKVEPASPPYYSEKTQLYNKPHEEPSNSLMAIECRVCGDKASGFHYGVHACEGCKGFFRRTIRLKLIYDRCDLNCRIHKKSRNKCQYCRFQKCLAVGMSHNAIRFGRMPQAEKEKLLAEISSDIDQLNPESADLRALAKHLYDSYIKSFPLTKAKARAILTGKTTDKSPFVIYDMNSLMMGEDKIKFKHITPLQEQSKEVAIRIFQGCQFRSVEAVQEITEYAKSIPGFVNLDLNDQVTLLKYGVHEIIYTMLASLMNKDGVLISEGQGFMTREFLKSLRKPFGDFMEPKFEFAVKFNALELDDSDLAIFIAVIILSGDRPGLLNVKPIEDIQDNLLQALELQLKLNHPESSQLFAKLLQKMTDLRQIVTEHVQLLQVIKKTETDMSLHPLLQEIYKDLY
Source text: nuclear receptor panel assay, agonist mode on PPARγ

FXR [2] = target: T1, FXR; experiment: luciferase reporter gene assay, antagonist mode; format: cell-based
Source text: luciferase reporter gene assay, antagonist mode on FXR

CC(C)(C)n1ncc(C(=O)Nc2ccc(Cl)c(CN3CCC(Oc4ccc(C(=O)O)cc4)CC3)c2)c1-c1ccc(F)cc1 [compound‐T1, 4‐({1‐[5‐({[1‐tert‐butyl‐5‐(4‐fluorophenyl)‐1H‐pyrazol‐4‐yl]carbonyl}amino)‐2‐chlorobenzyl]piperidin‐4‐yl}oxy)benzoic acid] gave an EC50 (FXR [1]) greater than 10 µM, an IC50 (RXRβ) greater than 10 µM and an EC50 (PPARγ) greater than 10 µM. The IC50 (FXR [2]) was 0.0021 µM.
